From article PMC12463534, “Exploring the Anticancer Properties of 4-Phenylthiazole-Based Ru(II) and Os(II) Metallacycles Featuring 1-Methylimidazole as N-Donor Functionality” (Bioinorganic Chemistry and Applications, 2025)
Read-outs that look alike come from different tables or passages of the source.

Assays:
[1] = test system: SW480 colon adenocarcinoma cells; parameters: method as in PMID 38426897; settings: MTT assay, exposure time 96 h; ref [5]; read-out: 50% inhibitory concentration SW480 (chlorido complexes, reference) (converted); cited from earlier work
[2] = test system: A549 lung adenocarcinoma cells; parameters: method as in PMID 38426897; settings: MTT assay, exposure time 96 h; ref [5]; read-out: 50% inhibitory concentration A549 (chlorido complexes, reference) (converted); cited from earlier work
[3] = test system: G4 forming sequences (h-Telo, bcl2, hTERT, Kit1, Kit2) and dsDNA; parameters: method as in PMID 38426897; settings: recent work; ref [5]; cited from earlier work
[4] = test system: CH1/PA-1 ovarian teratocarcinoma cells; parameters: method as in PMID 38426897; settings: MTT assay, exposure time 96 h; ref [5]; read-out: 50% inhibitory concentration CH1 (chlorido complexes, reference) (converted); cited from earlier work
[5] = test system: HCT116 multicellular tumor spheroids (3D); experiment: Resazurin assay, HCT116 3D multicellular tumor spheroids; settings: read-out: IC50 3D; HCT116 3D spheroids, resazurin assay, 96 h exposure
[6] = test system: SW480 cancer cells; experiment: Cellular accumulation (ICP-MS) in SW480 cells; settings: 50 μM, 0.5% DMF in MEM, SW480, exposure time 2 h
Description: (§1) As the coordinated p-cym and leaving groups are present in all synthesized complexes, we focused on the differently substituted 4-phenylthiazoles for estimated changes in lipophilicity.
Cellular accumulation of the compounds was studied based on a method described previously with modifications. 1.8 × 10^5 SW480 cells per well were seeded in aliquots of 1 mL of complete MEM (see above) into 12-well plates (CytoOne, tissue culture treated, Starlab) and incubated at 37°C for 24 h. Then, cells were exposed for 2 h at 37°C to 50 μM solutions of the test compounds (containing 0.5% DMF) in fresh 0.5 mL of complete MEM upon exchange of the medium. Afterward, cells were washed three times with 1 mL PBS per well, lysed with 0.4 mL sub-boiled HNO3 per well for 1 h at room temperature, and 0.3 mL of each sample was diluted with 7.7 mL Milli-Q water. Adsorption/desorption controls were prepared in the same manner in cell-free wells. Ruthenium content was quantified by ICP-MS using an ICP-quadrupole MS Agilent 7800 instrument (Agilent Technologies, Waldbronn, Germany) as described previously.

[7] = test system: Balb/c mice; experiment: Toxicity experiments in Balb/c mice (MTD); settings: for Toxicity in mice: i.p. 50 mg/kg, three consecutive days, 10% DMSO in 0.9% NaCl; for MTD fold lower compared to 1c and 3c: mice
Description: Finally, we were interested in the anticancer activity of selected complexes of our panel in an in vivo mouse setting. Before injecting the compounds in tumor-bearing mice, toxicity experiments were performed. […] On the last day of therapy, most animals were sacrificed and tissues as well as tumors collected. Only four mice (per group) were kept to get information on the impact of the drugs on the overall survival.

[8] = test system: A549 lung adenocarcinoma cells; experiment: MTT assay, inhibition of cancer cell growth, A549; settings: read-out: 50% inhibitory concentration A549, exposure time 96 h
Description: (§2) CH1/PA-1 ovarian teratocarcinoma cells (CH1, RRID: CVCL_4992, provided by L. R. Kelland, CRC Center for Cancer Therapeutics, Institute of Cancer Research, Sutton, UK; confirmed by STR profiling as PA-1 ovarian teratocarcinoma cells at Multiplexion, Heidelberg, Germany), SW480 colon adenocarcinoma (RRID: CVCL_0546), and A549 lung adenocarcinoma cells (NCI-H2618, RRID: CVCL_A549; both cell lines were obtained from the American Type Culture Collection (ATCC), Manassas, VA, USA) were grown as adherent cultures in 75-cm^2 culture flasks (Starlab, Hamburg, Germany) by using minimal essential medium (MEM) supplemented with 1 mM sodium pyruvate, 4 mM L-glutamine, 1% (v/v) nonessential amino acids from 100-fold stock (all purchased from Sigma-Aldrich), and 10% heat-inactivated fetal bovine serum (Serana, Pessin, Germany).
(§3) The 3-(4,5-dimethylthiazol-2-yl)-2,5-diphenyl-2H tetrazolium bromide (MTT, Acros Organics, Geel, Belgium) assay was used to detect the cytotoxicity of the compounds after 96-h incubation. For this purpose, cells were harvested from culture flasks by trypsinization, seeded in 100-μL aliquots into 96-well microculture plates (Starlab, UK) in densities of 1 × 10^3 (CH1/PA-1), 2 × 10^3 (SW480), and 3 × 10^3 (A549) cells per well and incubated for 24 h prior to exposure to the test compounds. Stock solutions of test compounds were prepared in DMF, which were then diluted in MEM (not to exceed a final content of 0.5% v/v of organic solvent in the test plates), and serial dilutions were added in aliquots of 100 μL per well. […] After incubation for 4 h, the medium/MTT mixtures were removed, and the produced formazan crystals were dissolved in 150 μL DMSO per well. Optical densities at 550 nm were measured spectrophotometrically with a ELx808 Absorbance Microplate Reader (Bio-Tek, Winooski, VT, USA) by using a reference wavelength of 690 nm to correct for unspecific absorption.

[9] = test system: G4 forming sequences (h-Telo, bcl2, hTERT, Kit1, Kit2) and dsDNA; experiment: FRET melting assay, G-quadruplex / B-DNA interaction; format: binding, human; settings: 60 mM potassium cacodylate pH 7.4, 2 h incubation
Description: G4s are DNA secondary motifs that play crucial roles in cancer development. […] The complexes were incubated with different G4 forming sequences: one derived from human telomere-forming (h-Telo) and four corresponding to promoter regions of oncogenes, namely, bcl2, hTERT, Kit1, and Kit2. For comparison, a self-complementary sequence called dsDNA was used to represent B-DNA (Table S2).
FRET experiments were conducted using an Applied Biosystems QuantStudio 6 PCR cycler in a 96-well format equipped with a FAM (6-carboxyfluorescein) filter. Oligonucleotide stock solutions, labelled with FAM and TAMRA (6-carboxytetramethylrhodamine) probes, were diluted to the desired concentration in a 60-mM potassium cacodylate buffer (pH 7.4). To fold the oligonucleotides into their B-DNA or G4 topologies, the solutions were heated to 95°C for 5 min and then allowed to cool slowly to room temperature overnight. The final concentration of the oligonucleotides was 0.2 μM, with a total volume of 30 μL in each well. Metal complexes were dissolved in DMF to prepare 2 mM stock solutions and further diluted with the buffer, where DMF concentration never exceeded 0.05%. Mixtures of oligonucleotides and metal compounds were left at room temperature for 2 h. Data were collected twice, each time in duplicate, over a temperature range of 25°C–95°C, with a ramp of 1°C every 30 s. FAM emission data were normalized from 0 to 1 to compare different datasets. After data normalization, we extrapolated the T1/2 values, i.e., the temperature at which normalized FAM emission is 0.5. The DNA concentration is expressed in strands.

[10] = Stability and reactivity in aqueous solution (1H-NMR, UV-vis)
Description: The exact concentration of the metal complex stock solutions was calculated on weight-in-volume basis. Complexes were dissolved in water in 1–5 mM concentration.
The path length was 1 cm.
^1H-NMR spectroscopic studies were carried out on a Bruker FT-NMR spectrometer AV NEO 500.10 MHz and a Bruker Avance III HD Ascend 500 Plus instrument. All ^1H-NMR spectra were recorded using a standard Bruker noesygppr1d pulse sequence to suppress water resonance. […] Samples contained 10% (v/v) D2O with a complex concentration of ca. 1 mM. Samples were prepared in pH 1.3 aqueous HCl solution or in pH 7.4 PBS.

[11] = test system: CH1/PA-1 ovarian teratocarcinoma cells; experiment: MTT assay, inhibition of cancer cell growth, CH1/PA-1; settings: read-out: 50% inhibitory concentration CH1, exposure time 96 h
Description: as §2, §3

[12] = test system: SW480 colon adenocarcinoma cells; experiment: MTT assay, inhibition of cancer cell growth, SW480; settings: read-out: 50% inhibitory concentration SW480, exposure time 96 h
Description: as §2, §3

[13] = test system: SW480 cells; experiment: DCFH-DA assay, cellular ROS levels; format: cell-based, human; settings: 2 h, concentration dependent
Description: For this approach, SW480 cells were subjected to the 2′,7′-dichlorofluorescin-diacetate (DCFH-DA) assay.
SW480 colon adenocarcinoma cells were trypsinized for 5 min in a humidified incubator at 37°C and under a 5% CO2 atmosphere. Supplemented MEM was added to stop trypsinization, and cells were centrifuged for 3 min at 1200 rpm (Heraeus Megafuge 1.0R). After cell counting, SW480 cells were seeded in 100-μL aliquots in densities of 2.5 × 10^4 cells/well into 96-well clear flat-bottom microplates (CytoOne, TC-treated, from Starlab). After incubation for 24 h, cells were washed with 200 μL of Hanks' balanced salt solution (HBSS; Sigma-Aldrich; supplemented with 1% heat-inactivated FCS). […] After washing cells with 200 μL of supplemented HBSS, serially diluted test compounds in phenol-red-free Opti-MEM (Gibco), supplemented with 1% heat-inactivated FCS, were added in 200-μl triplicates and tert-butyl hydroperoxide (TBHP) was applied as positive control. […] Blank-corrected values were calculated relative to negative controls (treated with drug-free supplemented Opti-MEM) from three independent experiments.

[14] = test system: HCT116 colorectal cancer cell line (2D); experiment: Resazurin assay, HCT116 2D (monolayer) culture; settings: read-out: IC50 2D, resazurin assay, 96 h exposure
Description: Both models were investigated by the fluorimetric resazurin assay after 96-h exposure.
HCT116 colorectal carcinoma cells (RRID:CVCL_0291 from ATCC) were cultivated in McCoy's 5A medium, supplemented with 10% heat-inactivated fetal bovine serum and 4 mM L-glutamine.
For 2D experiments, HCT116 cells were harvested from culture flasks by trypsinization, seeded in 100-μL aliquots into 96-well microculture plates (CytoOne, TC-treated, from Starlab) in densities of 2 × 10^3 cells per well, and incubated for 24 h prior to exposure to the test compounds. […] Stock solutions of test compounds were prepared in DMF, which were then diluted in McCoy's 5A-supplemented medium (not to exceed a final content of 0.5% v/v of organic solvent in the test plates), and serial dilutions were added in aliquots of 100 μL per well. […] After incubation for 4 h, fluorescence was measured with a microplate reader (Bio-Tek, SynergyHT) at a wavelength of 530 nm, additionally using a reference wavelength of 620 nm.

[15] = Solubility in 1% DMF/PBS
Text: Solubility is an important factor for the application of metallodrugs. DMF was used as solubilizer to allow comparison to the respective chlorido complexes where the usage of DMSO would lead to stable DMSO adducts.
as §1

For `Cc1ccc(-c2cscn2)[c]([Ru][Cl])c1.Cc1ccc(C(C)C)cc1` [Compound 1d], the IC50 [1] is given as 19 µM, the IC50 [2] is given as 34 µM and the “Stabilization of DNA G-quadruplex structures” value [3] is given as “stabilize DNA G-quadruplex (G4) structures”. For the same molecule, the IC50 [4] was 14 µM.

In the case of `Cc1ccc(C(C)C)cc1.Cn1cc[n+]([Ru-]2[c]3ccccc3-c3csc[n+]32)c1.O=[N+]([O-])[O-]` [Compound 3a, [((3-κN)-1-Methylimidazole)(4-phenylthiazolato-κN,κC2′)(η^6-p-cymene)ruthenium(II)] Nitrate], the IC50 [5] is reported as 10.6 ± 0.9 µM, the “Cellular accumulation, fg Ru/cell” value [6] is reported as 387 ± 16 fg Ru/cell and the Toxicity in mice ([7]; Balb/c mice) is reported as “highly toxic”. The “MTD fold lower compared to 1c and 3c” value [7] was 10 fold, the IC50 [8] was 11 ± 1 µM and the “Stabilization of oligonucleotides (G4s or B-DNA)” value [9] was “No stabilization”. The “Sensitivity to chloride: replacement of coordinated MeIm” value ([10]; 3 M KCl, pH 7.4, UV-vis) was “could not replace coordinated MeIm”, the “Decomposition at pH 7.4” value ([10]; PBS pH 7.4, 1 mM complex, 25°C, within 6 days, 1H-NMR) was “no decomposition” and the “Behaviour in acidic solution” value ([10]; pH = 1.0 or 1.3 (HCl), followed in time up to 6 days, 1H-NMR/UV-vis) was “decomposition”. The “Spectral change at pH 10.0” value ([10]; pH = 10.0 (NaOH), within 2 days, UV-vis) was “no spectral change”, the IC50 [11] was 1.9 ± 0.1 µM and the IC50 [12] was 5.4 ± 1.1 µM. For the same molecule, the “Effect on intracellular ROS levels” value [13] was “constantly decrease ROS levels with increasing concentrations”, the IC50 [14] was 8.4 ± 0.7 µM and the Solubility [15] was 9.08 mM.

For `Cc1ccc(C(C)C)cc1.[Cl][Ru][c]1ccccc1-c1cscn1` [Compound 1a], the IC50 [5] is given as 31 ± 5 µM, the IC50 [1] is given as 9.5 µM and the “Maximal tolerable dose (MTD) for repeated applications” value ([7]; Balb/c mice, i.p.) is given as 5 mg/kg. The Toxicity in mice ([7]; Balb/c mice) was “highly toxic”, the “MTD fold lower compared to 1c and 3c” value [7] was 10 fold and the IC50 [2] was 24 µM. The “Effect on intracellular ROS levels” value [13] was “constantly decrease ROS levels with increasing concentrations”, the IC50 [14] was 18 ± 5 µM and the “Stabilization of DNA G-quadruplex structures” value [3] was “stabilize DNA G-quadruplex (G4) structures”. The IC50 [4] was 3 µM.
